Experimental data published in PubChem BioAssay (NCI).
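Protocol summary: plate cells (96-well), add compound at 5 concentrations, incubate 48 h, interpolate endpoints linearly. At the TGI there is no net growth.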

Experiments:
Test in all cases: NCI anticancer screen, dose series, 48 h
[1] = system: HCT-15 colon
[2] = system: SN12C renal
[3] = system: NCI/ADR-RES ovarian
[4] = system: HOP-92 NSCLC
[5] = system: SNB-75 CNS
[6] = system: M14 melanoma
[7] = system: LOX IMVI melanoma
[8] = system: UO-31 renal
[9] = system: ACHN renal
[10] = system: CAKI-1 renal
[11] = system: 786-0 renal
[12] = system: OVCAR-5 ovarian
[13] = system: MCF7 breast
[14] = system: SW-620 colon
[15] = system: A549 NSCLC
[16] = system: SF-295 CNS
[17] = system: SF-539 CNS
[18] = system: UACC-257 melanoma
[19] = system: NCI-H23 lung

Row | Compound | TGI [1] [µM] | TGI [2] [µM] | TGI [3] [µM] | TGI [4] [µM] | TGI [5] [µM] | TGI [6] [µM] | TGI [7] [µM] | TGI [8] [µM] | TGI [9] [µM] | TGI [10] [µM] | TGI [11] [µM] | TGI [12] [µM] | TGI [13] [µM] | TGI [14] [µM] | TGI [15] [µM] | TGI [16] [µM] | TGI [17] [µM] | TGI [18] [µM] | TGI [19] [µM]
1 | COC(=O)c1ccccc1/C=C1\Cc2cc(C)c(C)cc2C1=O | > 100 | > 100 | > 100 | 59.2 | 81.3 | > 100 | > 100 | > 100 | > 100 | > 100 | > 100 | > 100 | > 100 | > 100 | > 100 | > 100 | > 100 | > 100 | 
2 | COc1ccc([C@@]23OC[C@@H]4[C@@H](OC[C@@H]42)c2cc(OC)c(OC)cc23)cc1OC | > 100 |  | > 100 |  | > 100 | > 100 | > 100 | > 100 | > 100 | > 100 | > 100 | > 100 | > 100 | > 100 | > 100 | > 100 | > 100 |  | > 100
3 | NCCN1CC2CCC(CC2)C1 | > 10 | > 10 | > 10 |  | > 10 | > 10 | > 10 | > 10 | > 10 | > 10 | > 10 |  | > 10 | > 10 | > 10 | > 10 | > 10 | > 10 | > 10
4 | Cc1ccc(S(=O)(=O)NC(=O)Nc2ccc(S(N)(=O)=O)cc2S(N)(=O)=O)cc1 | > 100 | > 100 | > 100 | > 100 | > 100 | > 100 | > 100 | > 100 |  | > 100 | > 100 | > 100 | > 100 | > 100 | > 100 | > 100 |  | > 100 | > 100
5 | O=C(/C=C/c1ccc(O)c(O)c1O)OCCc1ccccc1 | 51.9 | 34.4 | 70.7 | > 100 |  | 37.9 | 53.5 | 78.1 | > 100 | > 100 | 35.5 | > 100 | 32.2 | 49.2 | 52.8 | 35.5 | 70.7 | > 100 | 48.7
6 | C[C@]12[C@@H]3CC[C@H]1[C@@H](OC(=O)Nc1cc([N+](=O)[O-])cc([N+](=O)[O-])c1)C(=O)N2CC3 | > 100 | > 100 | > 100 | > 100 | > 100 | > 100 | > 100 | > 100 | > 100 | > 100 | > 100 | > 100 | > 100 | > 100 | > 100 | > 100 |  | > 100 | > 100
7 | COc1c(O)c2c(=O)cc(OC)c3c4c(OC)cc(=O)c5c(O)c(OC)c6c(c(c1C(C(C)=O)C6C(C)O)c23)c54 (stereo unspecified) | 2.25 | 2.94 | 1.58 | 1.4 | 1.42 |  | 0.32 | 1.03 | 1.09 |  | 3.81 | 1.28 | 1.54 | 0.469 | 3.06 | 2.05 | 1.87 | 1.39 | 1.33
8 | O=C(c1ccc(Br)cc1)n1c2ccc(Br)cc2c2nc3ccccc3nc21 | > 100 | > 100 | > 100 | > 100 | > 100 | > 100 | > 100 | > 100 | > 100 | > 100 | > 100 | > 100 | > 100 | > 100 |  | > 100 | > 100 | > 100 | > 100
9 | CN(CCCNC(=O)c1nn(-c2ccc(Cl)cc2Cl)c2c1ccc1ccccc12)CCCNC(=O)c1nn(-c2ccc(Cl)cc2Cl)c2c1ccc1ccccc12 | 3.24 | 3.14 | 3.26 | 3.52 | 3.18 | 3.04 | 3.2 |  | 3.02 | 3.05 | 2.95 | 3.57 | 2.9 |  | 3.11 | 3.06 | 3.47 | 3.26 | 3.26
10 | CCc1c(Cc2cc(C)cc(C)c2)n2c(nc1=O)SCC2CBr (stereo unspecified) | > 50 | > 50 | > 50 | > 50 | > 50 | > 50 | > 50 | > 50 | > 50 | > 50 | > 50 | > 50 | > 50 | > 50 | > 50 |  | > 50 | > 50 | > 50
11 | CC#CCCN(CC#N)Cc1ccccc1 | > 100 | > 100 | > 100 | > 100 | > 100 | > 100 | > 100 | > 100 | 48 | > 100 | > 100 | > 100 | 44.7 |  | > 100 | > 100 |  | > 100 | > 100
12 | Cc1ccc(S(=O)(=O)Oc2nc3ccccc3nc2N(S(=O)(=O)c2ccc(C)cc2)S(=O)(=O)c2ccc(C)cc2)cc1 | > 100 | > 100 | > 100 |  | > 100 | > 100 | > 100 | > 100 | > 100 | > 100 | > 100 | > 100 | > 100 | > 100 | > 100 | > 100 | > 100 | > 100 | > 100
13 | Cc1cn(C2CC(N)C(C(=O)O)O2)c(=O)[nH]c1=O (stereo unspecified) | > 100 | > 100 | > 100 | > 100 | > 100 | > 100 |  | > 100 | > 100 | > 100 | > 100 | > 100 | > 100 | > 100 | > 100 |  | > 100 | > 100 | > 100
